The values below come from PMC8592027, “Structure-Guided Design of D-Galactal Derivatives with High Affinity and Selectivity for the Galectin-8 N-Terminal Domain” (ACS Medicinal Chemistry Letters, 2021).

One experiment deals with T1, galectin-1 (Homo sapiens, UniProt P09382).
T1 construct: made in house
Put plainly: Competitive fluorescence polarization assay, galectin-1. Particulars: mean ± SEM of n = 4–8. The format is binding. Here is the method:
(§1) 1. Competitive fluorescence polarization experiments:
(§2) Human galectins -1, -3, -4N, -4C, -7, -8N, -9N, and -9C were expressed and purified as previously described 30,41. Fluorescence polarisation experiments were performed using the PHERAstar FS plat e reader (software version 2.10 R3), and the fluorescence anisotropy of fluorescein tagged probes was measured by excitation at 485 nm and emission at 520 nm. The specific conditions for galectins -1, -3, -4N, -4C, -7, -8N, -9N, and -9C were kept as report ed30,41,42. The synthesised compounds were dissolved in pure DMSO at 20 mM concentration and diluted in PBS to 3-6 different concentrations, and each concentration was tested in duplicate. The highest inhibitor concentrations tested were 1.5 mM. The

Experiment [1] addresses T2, galectin-4C (C-terminal domain) (Homo sapiens, UniProt P56470).
T2 construct: galectins (N = N-terminal domain, C = C-terminal domain); made in house
T2 sequence (P56470 194-323 limits assumed): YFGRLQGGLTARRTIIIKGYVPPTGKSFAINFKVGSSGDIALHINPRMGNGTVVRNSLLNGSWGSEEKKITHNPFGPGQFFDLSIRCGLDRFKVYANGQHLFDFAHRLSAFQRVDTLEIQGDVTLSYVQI
The experiment is described as follows: Competitive fluorescence polarization assay, galectin-4C. The settings on record: mean ± SEM of n = 4–8. Format: binding. Here is the method:
as §1, §2
(Fluorescence polarisation rises when a labelled molecule tumbles more slowly, as on binding a larger partner.)

The target of experiment [2] is T3, galectin-4N (N-terminal domain) (Homo sapiens, UniProt P56470).
T3 construct: galectins (N = N-terminal domain, C = C-terminal domain); made in house
T3 sequence (P56470 19-150 limits assumed): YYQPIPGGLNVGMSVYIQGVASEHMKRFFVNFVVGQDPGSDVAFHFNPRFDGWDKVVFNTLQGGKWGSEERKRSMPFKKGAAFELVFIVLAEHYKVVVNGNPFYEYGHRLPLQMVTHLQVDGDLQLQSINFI
Put plainly: Competitive fluorescence polarization assay, galectin-4N. The settings on record: mean ± SEM of n = 4–8. The format is binding. Here is the method: as §1, §2

For the next experiment, the target named is T4, galectin-2 (Homo sapiens, UniProt P05162).
T4 sequence (P05162 1-132): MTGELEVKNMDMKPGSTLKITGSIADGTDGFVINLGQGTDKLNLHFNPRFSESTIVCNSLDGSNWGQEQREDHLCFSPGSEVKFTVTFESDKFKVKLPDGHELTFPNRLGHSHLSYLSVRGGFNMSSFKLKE
The experiment is described as follows: Competitive fluorescence polarization assay, galectin-2. Particulars: mean ± SEM of n = 4–8. Format: binding.

Experiment [3] concerns IL-6 secretion from MDA-MB-231 cells. Put plainly: Multiplexed cytokine assay, IL-6 secretion. The format is cell-based, human. Particulars: 24 hours, vs untreated cells. Here is the method: Figure 5 Effect of compounds 1 and 6a on the secretion of IL-6 and IL-8 expressed in pg/mL. The effects were measured after incubating the cells with the compounds at 10 and 100 μM. Compounds 1 and 6a reduce the secretion of IL-6 and IL-8 in a dose-dependent manner at 100 and 10 μM. Results shown are means ± SEM of three independent experiments. ns, not significant (p > 0.05); *p < 0.05 versus untreated controls.
Metabolic activity assay: […]
Briefly, the cells were treated with the selected compounds in 0.1% dimethyl sulfoxide (DMSO; vehicle), 0.1% DMSO (control vehicle), or medium (control) and seeded at a cell density of 5,500 cells/well (MDA-MB-231 cells) or 4 x 10^4 cells/well (K562 cells), 7000 cells/well (HepG2 cells) or 1 x 10^5 cells/well (human PBMCs) in duplicates (MDA-MB-231, K562, and […]) or triplicates for HepG2 cells (100 µL), in sterile 96-well plates. For the MDA-MB-231 and HepG2, the cells were left to adhere overnight before adding the compounds. The plates were then incubated for 24 hours (48 hours for HepG2), after which 15 µL of MTS reagent was added to each well. […]
HTX Multi-Mode; BioTek Instruments, Inc., VT, USA).
Multiplexed cytokine assay:
MDA-MB-231 cells were seeded in 96-well flat-bottom plates at a density of 2 x 10^4 cells/well in 100 µL of medium and allowed to adhere for 24 hours at 37 °C and 5% CO2. The medium was then replaced by a fresh medium containing the desired concentrations of compounds 1 and 6a, after which the cells were cells incubated again for 24 hours at 37 °C and 5% CO2. Cell-free supernatants were collected and stored at – 80 °C before the analysis. The cytokines secretion was assessed by BD Cytometric Bead Array Human inflammatory cytokine Kit (content: IL-1, IL-6, IL-8, IL-10, IL-12p). The flow cytometric analyses were performed on an Attune NxT flow cytometer (Thermo Fisher Scientific, Waltham, MA, USA). Standard curves were generated using recombinant cytokines provided in the kit, and the data were analyzed with FlowJo software (Tree Star, Inc., Ashland, OR). The results are expressed in pg/mL. Data are represented as means ± standard deviation (SD) from three representative independent experiments.
All experiments were performed at least twice, with average values expressed as means ± SD. All data were analyzed with the statistical software GraphPad Prism 8.0 (GraphPad Software, Inc., CA, USA). by one-way ANOVA followed with Dunnett’s multiple compar ison test. Differences were considered non-significant for p > 0.05, and significant (*) for p < 0.05.

Experiment [4] has as its target T5, galectin-9C (C-terminal domain) (Homo sapiens, UniProt O00182).
T5 construct: galectins (N = N-terminal domain, C = C-terminal domain); made in house
The experiment is described as follows: Competitive fluorescence polarization assay, galectin-9C. The format is binding. Particulars: mean ± SEM of n = 4–8. How it is done:
as §1, §2

T1 sequence (P09382 whole entry): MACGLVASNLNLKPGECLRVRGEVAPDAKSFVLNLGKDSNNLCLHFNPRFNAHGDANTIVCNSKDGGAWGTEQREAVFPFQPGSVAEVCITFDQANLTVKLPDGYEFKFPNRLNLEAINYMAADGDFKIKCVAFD
T5 sequence (O00182 227-355 limits assumed): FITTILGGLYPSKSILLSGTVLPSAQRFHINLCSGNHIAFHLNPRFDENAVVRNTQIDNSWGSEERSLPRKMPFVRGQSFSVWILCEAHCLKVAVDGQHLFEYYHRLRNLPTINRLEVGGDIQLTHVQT

With `Cn1c(CO[C@@H]2C=CO[C@H](CO)[C@@H]2O)nc2ccc(C(=O)O)cc21` [6a], the Kd is 1300 ± 130 µM at galectin-1; 1700 ± 150 µM in experiment [1]; 1400 ± 30 µM in experiment [2]; 1400 ± 24 µM at galectin-2; > 1500 µM in experiment [4]. In addition, the “reduction in IL-6 secretion” value in experiment [3] (10 μM, effect not significant) is given as “about 15%”. In experiment [3] (100 μM), the “reduction of IL-6 secretion” value is “about 65%”.

As a reminder, the Kd is the concentration at which binding is half-saturated. Read a low Kd as a tighter complex.
